Legend:
[1] = system: BMP-2 production of human osteosarcoma cell strain HuO9; assay: Enhancing activity for BMP-2 production, enzyme immunoassay of culture medium; type: cell-based; settings: for Enhancing Activity for BMP-2 Production: HuO9; for Enhancement of BMP-2 production (result in words): HuO9 cells
Protocol: Human osteosarcoma cell strain HuO9 was suspended in a DMEM medium (manufactured by Bio Whittaker) containing 10% fetal bovine serum (manufactured by Bio Whittaker) so as to have a concentration of 1×10^5 cells/ml. The suspension was put into a 96-well plate in an amount of 0.1 ml per well, and the cells were cultured sterilely. After the cells were cultured for 2 days, the medium was exchanged with a fresh medium. The fucoidan derived from Kjellmaniella crassifolia obtained in item (1) of Reference Example 1 was added thereto as a sample, and the cells were cultured for 48 hours. Next, the concentration of bone morphogenetic protein-2 (BMP-2) in the culture medium was measured with enzyme immunoassay method (BMP-2 Immunoassay: manufactured by GT). The enhancing activity for BMP-2 production was expressed by setting as a control one without addition of the sample, and defining the BMP-2 concentration in the cell culture medium (the amount of BMP-2 production of a cell) as 100%.

[2] = system: Mouse embryo derived cell strain C3H10T1/2; assay: Induction of differentiation into osteoblasts, alkaline phosphatase activity in cells; type: cell-based; settings: for Alkaline Phosphatase Activity: 7 days, C3H10T1/2, control = 100%, average of two experiments
Protocol: Mouse embryo derived cell strain C3H10T1/2 was suspended in a DMEM medium containing 10% fetal bovine serum so as to have a concentration of 3×10^4 cells/ml. The suspension was put into a 96-well plate in an amount of 0.1 ml per well, and the cells were cultured sterilely. After the cells were cultured for 3 days, the medium was exchanged with a fresh medium. Heparan sulfate, or the Chlorella sulfated polysaccharide fraction CSP-I or CPS-II obtained in Reference Example 4 was added thereto as a sample, and the cells were cultured for 7 days. Subsequently, differentiation of C3H10T1/2 into osteoblasts was determined using an increase of the alkaline phosphatase activity in the cells as an index. The cells were washed once with PBS. One-hundred microliters of a reaction substrate solution (100 mM diethanolamine buffer pH 10.0, 2 mM magnesium chloride, 1 mM p-nitrophenyl phosphoric acid) was added thereto, and the reaction was carried out at 37° C. for 30 minutes. Next, 100 μl of 0.2 N sodium hydroxide was added thereto to stop the reaction, and the amount of p-nitrophenol which was released was determined with an absorbance at 405 nm. The alkaline phosphatase activity when a sample was added was expressed by setting as a control one without addition of the sample, wherein the alkaline phosphatase activity of the control was defined as 100%. The activity indicates an induction activity of differentiation into osteoblasts. The experiments were carried out twice, and the average value was taken.

[3] = 10 μg/ml, control = 100% (0.083 ng/ml)
[4] = 100 μg/ml, control = 100% (0.083 ng/ml carrageenans, 0.070 ng/ml low-molecular-weight heparin)
[5] = 500 μg/ml, control = 100% (0.201 ng/ml for 7-12SFd-F, 0.130 ng/ml for chondroitin sulfate B and pectic acid)
[6] = 1000 μg/ml, control = 100% (0.201 ng/ml for 7-12SFd-F, 0.130 ng/ml for chondroitin sulfate B and pectic acid)
[7] = 10 μg/ml, control = 100% (0.110 ng/ml)
[8] = 100 μg/ml, control = 100% (0.110 ng/ml)

Row | Molecule | Enhancement of BMP-2 production (result in words) [1] | Enhancing Activity for BMP-2 Production [1, 3] | Enhancing Activity for BMP-2 Production [1, 4] | further results
1 | O=C(/C=C/c1ccc(O)c(O)c1)O[C@@H]1C[C@](O)(C(=O)O)C[C@@H](O)[C@H]1O [Chlorogenic Acid, chlorogenic acid] | enhance BMP-2 production in a concentration-dependent manner | – | – | Enhancing Activity for BMP-2 Production ([1]; 88.6 μg/ml, control = 100% (0.041 ng/ml)): 319.5%; Enhancing Activity for BMP-2 Production ([1]; 177.2 μg/ml, control = 100% (0.041 ng/ml)): 320.4%
2 | Heparan sulfate | – | – | – | Alkaline Phosphatase Activity ([2]; 10 μg/ml): 132.2%; Alkaline Phosphatase Activity ([2]; 100 μg/ml): 178.0%; Induction of differentiation into osteoblasts (result in words) ([2]; C3H10T1/2 cells): induce differentiation into osteoblasts in a concentration-dependent manner
3 | carrageenan ι | enhance BMP-2 production in a concentration-dependent manner | 201.2% | 517.5% | –
4 | carrageenan κ | enhance BMP-2 production in a concentration-dependent manner | 219.3% | 263.3% | –
5 | carrageenan λ | enhance BMP-2 production in a concentration-dependent manner | 359.6% | 485.5% | –
6 | chondroitin sulfate B | enhance BMP-2 production in a concentration-dependent manner | – | – | Enhancing Activity for BMP-2 Production [1, 5]: 524.5%; Enhancing Activity for BMP-2 Production [1, 6]: 846.2%
7 | dextran sulfate | enhance BMP-2 production in a concentration-dependent manner | – | – | Enhancing Activity for BMP-2 Production [1, 7]: 2789%; Enhancing Activity for BMP-2 Production [1, 8]: 2984%
8 | heparin | enhance BMP-2 production in a concentration-dependent manner | – | – | Enhancing Activity for BMP-2 Production [1, 7]: 435.1%; Enhancing Activity for BMP-2 Production [1, 8]: 1339%
9 | low-molecular-weight heparin | enhance BMP-2 production in a concentration-dependent manner | – | 390.0% | Enhancing Activity for BMP-2 Production ([1]; 1000 μg/ml, control = 100% (0.070 ng/ml)): 807.1%
10 | pectic acid | enhance BMP-2 production in a concentration-dependent manner | – | – | Enhancing Activity for BMP-2 Production [1, 5]: 220.3%; Enhancing Activity for BMP-2 Production [1, 6]: 242.1%

— patent publication US20060051316A1, “Remedy” (priority 2002, published 2006)
